Patent US20250090695A1, “IMMUNOSTIMULANT-CYTOTOXIC CONJUGATE COMPOSITION AND METHODS FOR CANCER TREATMENT” (The Research Foundation for the State University of New York, priority 2022, published 2025)

Columns and labels:
PSMA = biological target: T1, PSMA (Homo sapiens, UniProt Q04609); conditions: clinical trials; cited from earlier work
T1 construct: This has been leveraged in clinical trials using the radiotherapeutic 117Lu-PSMA-617; host or cells: tumours of prostate cancer patients

T-cells (CD3) = assay: Immuno-PET ROI analysis of 89Zr-DFO-anti-CD3 after therapy (tumor infiltrating T-cells); type: in vivo, murine subjects
Method: FIG. 13A-13C describes a method and results for T-cell detection using immuno-positron emission tomography (PET).
FIG. 14A-14D show graphical representations of tumor infiltrating T-cell analysis after administration of a therapeutic compound or control. Infiltration was measured using immuno-positron emission tomography (PET).

[1] = OLINDA dosimetry to adult male from mouse biodistribution
[2] = Biodistribution in a syngeneic model of prostate cancer with a RM1-PGLS tumor; conditions: C57BL/6J mice
RM1-PGLS tumors = type: in vivo, murine subjects; conditions: overall survival post treatment; RM1-PGLS tumors; P < 0.0007 printed for 177Lu-RIMS-1
Method: FIG. 11A-11C show a visual schematic of RM1-PGLS tumor insertion in mice followed by T-cell population analysis (FIG. 11A), and tumor efficacy study analysis for in vivo tumor treatment with experimental ^177Lu-RIMS-1 compound compared with control compounds: ^177Lu-PSMA-617, unlabeled Lu-RIMS, and saline (FIG. 11B) measuring tumor volume (left), and percent survival (right).
Murine subjects were treated with RIMS compounds and tumor volume (FIG. 11B, left), subject viability measured as percent survival (FIG. 11B, right), subject weight (FIG. 11C), were described and analyzed as shown in FIGS. 11A-11C. Median overall survivability (OS) in murine subjects treated with RIMS compounds and control therapies.

[3] = tested on: CD8+ and CD4+ T-cell populations; assay: T-cell population analysis in spleen and tumor of RM1-PGLS bearing mice; type: in vivo; set-up: unit not given here; conditions: RM1-PGLS bearing C57BL/6J mice
Method: FIG. 12A-12B show graphical representations of T-cell population analysis measuring cell viability in the spleen (FIG. 12A). and in the tumor (FIG. 12B) in vivo for subjects having RM1-PGLS tumors with either an experimental ^177Lu-RIMS compound, or a control compound selected from: ^177Lu-PSMA-617, unlabeled Lu-RIMS, or a control vehicle.
^177Lu-RIMS-1 and control compounds were evaluated for immune cell recruitment.

[4] = Biodistribution in a xenograft model of prostate cancer with PC-3 PiP (PSMA(+)) and PC-3 flu (PSMA(−)) tumors; type: in vivo, Male NCr nude mice; conditions: PC-3 PiP/PC-3 flu xenograft, NCr nude mice
Method: Biodistribution analyses of ^177Lu-RIMS-1 and ^177Lu-PSMA-617 were carried out in a xenograft model of prostate cancer with a PC-3 PiP tumor (PSMA(+)) on the left shoulder of a murine subject, and a PC-3 flu tumor (PSMA(−)) on the right should of a murine subject. Murine subjects examined were Male NCr nude mice.

T1 sequence (Q04609 whole entry): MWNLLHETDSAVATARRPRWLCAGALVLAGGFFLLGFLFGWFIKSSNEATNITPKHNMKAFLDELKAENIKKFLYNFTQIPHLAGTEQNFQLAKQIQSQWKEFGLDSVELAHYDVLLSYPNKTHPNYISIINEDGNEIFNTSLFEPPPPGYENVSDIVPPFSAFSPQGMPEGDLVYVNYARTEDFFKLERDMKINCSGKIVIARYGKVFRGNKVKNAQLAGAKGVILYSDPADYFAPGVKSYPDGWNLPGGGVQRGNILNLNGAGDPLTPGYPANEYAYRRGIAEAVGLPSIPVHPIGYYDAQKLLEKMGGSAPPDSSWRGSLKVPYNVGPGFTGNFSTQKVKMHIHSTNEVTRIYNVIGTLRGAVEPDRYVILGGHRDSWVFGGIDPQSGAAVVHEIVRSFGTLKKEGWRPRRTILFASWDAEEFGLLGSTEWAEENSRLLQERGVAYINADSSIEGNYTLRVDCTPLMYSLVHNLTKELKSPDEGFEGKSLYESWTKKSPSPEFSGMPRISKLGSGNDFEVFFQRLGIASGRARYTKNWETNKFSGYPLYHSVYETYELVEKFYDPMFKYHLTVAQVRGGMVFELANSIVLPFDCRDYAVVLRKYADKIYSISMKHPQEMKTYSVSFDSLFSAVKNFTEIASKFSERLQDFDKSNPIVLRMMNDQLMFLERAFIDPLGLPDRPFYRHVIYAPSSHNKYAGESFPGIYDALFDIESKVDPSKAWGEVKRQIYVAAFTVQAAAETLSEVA

## O=C([O-])CN1CCN(CC(=O)[O-])CCN(CC(=O)NCC2CCC(C(=O)N[C@@H](Cc3ccc4ccccc4c3)C(=O)NCCCC[C@H](NC(=O)N[C@@H](CCC(=O)O)C(=O)O)C(=O)O)CC2)CCN(CC(=O)[O-])CC1.[177Lu+3] (stereo partly shown) [^177Lu-PSMA-617]
PSMA
  Non-responders among patients: 30%
T-cells (CD3); Blood, 8 days after administration of therapy
  % Injected Dose/cc of 89Zr-DFO-anti-CD3 (ROI): 8.94 ± 0.34 % Injected Dose/cc
T-cells (CD3); Blood, 9 days after administration of therapy
  % Injected Dose/cc of 89Zr-DFO-anti-CD3 (ROI): 5.85 ± 2.22 % Injected Dose/cc
T-cells (CD3); Blood, 10 days after administration of therapy
  % Injected Dose/cc of 89Zr-DFO-anti-CD3 (ROI): 4.13 ± 0.68 % Injected Dose/cc
T-cells (CD3); Blood, 11 days after administration of therapy
  % Injected Dose/cc of 89Zr-DFO-anti-CD3 (ROI): 4.05 ± 1.24 % Injected Dose/cc
T-cells (CD3); Blood, 12 days after administration of therapy
  % Injected Dose/cc of 89Zr-DFO-anti-CD3 (ROI): 4.26 ± 0.62 % Injected Dose/cc
T-cells (CD3); Spleen, 8 days after administration of therapy
  % Injected Dose/cc of 89Zr-DFO-anti-CD3 (ROI): 21.55 ± 4.49 % Injected Dose/cc
T-cells (CD3); Spleen, 9 days after administration of therapy
  % Injected Dose/cc of 89Zr-DFO-anti-CD3 (ROI): 24.84 ± 4.91 % Injected Dose/cc
T-cells (CD3); Spleen, 10 days after administration of therapy
  % Injected Dose/cc of 89Zr-DFO-anti-CD3 (ROI): 27.09 ± 3.75 % Injected Dose/cc
T-cells (CD3); Spleen, 11 days after administration of therapy
  % Injected Dose/cc of 89Zr-DFO-anti-CD3 (ROI): 23.82 ± 3.55 % Injected Dose/cc
T-cells (CD3); Spleen, 12 days after administration of therapy
  % Injected Dose/cc of 89Zr-DFO-anti-CD3 (ROI): 24.65 ± 0.81 % Injected Dose/cc
T-cells (CD3); Tumor, 8 days after administration of therapy
  % Injected Dose/cc of 89Zr-DFO-anti-CD3 (ROI): 10.27 ± 0.024 % Injected Dose/cc
T-cells (CD3); Tumor, 9 days after administration of therapy
  % Injected Dose/cc of 89Zr-DFO-anti-CD3 (ROI): 7.83 ± 1.66 % Injected Dose/cc
T-cells (CD3); Tumor, 10 days after administration of therapy
  % Injected Dose/cc of 89Zr-DFO-anti-CD3 (ROI): 6.67 ± 3.63 % Injected Dose/cc
T-cells (CD3); Tumor, 11 days after administration of therapy
  % Injected Dose/cc of 89Zr-DFO-anti-CD3 (ROI): 3.90 ± 0.35 % Injected Dose/cc
T-cells (CD3); Tumor, 12 days after administration of therapy
  % Injected Dose/cc of 89Zr-DFO-anti-CD3 (ROI): 2.72 ± 0.81 % Injected Dose/cc
[1]; Target Organ Adrenals
  OLINDA dosimetry to Adult Male, Adrenals: 1.32 μSv/MBq
[1]; Target Organ Brain
  OLINDA dosimetry to Adult Male, Brain: 0.00 μSv/MBq
[1]; Target Organ Esophagus
  OLINDA dosimetry to Adult Male, Esophagus: 0.25 μSv/MBq
[1]; Target Organ Eyes
  OLINDA dosimetry to Adult Male, Eyes: 0.00 μSv/MBq
[1]; Target Organ Gallbladder Wall
  OLINDA dosimetry to Adult Male, Gallbladder Wall: 0.93 μSv/MBq
[1]; Target Organ Heart Wall
  OLINDA dosimetry to Adult Male, Heart Wall: 1.57 μSv/MBq
[1]; Target Organ Kidneys
  OLINDA dosimetry to Adult Male, Kidneys: 54.70 μSv/MBq
[1]; Target Organ Left Colon
  OLINDA dosimetry to Adult Male, Left Colon: 0.18 μSv/MBq
[1]; Target Organ Liver
  OLINDA dosimetry to Adult Male, Liver: 27.80 μSv/MBq
[1]; Target Organ Lungs
  OLINDA dosimetry to Adult Male, Lungs: 2.43 μSv/MBq
[1]; Target Organ Osteogenic Cells
  OLINDA dosimetry to Adult Male, Osteogenic Cells: 0.83 μSv/MBq
[1]; Target Organ Pancreas
  OLINDA dosimetry to Adult Male, Pancreas: 0.32 μSv/MBq
[1]; Target Organ Prostate
  OLINDA dosimetry to Adult Male, Prostate: 0.10 μSv/MBq
[1]; Target Organ Rectum
  OLINDA dosimetry to Adult Male, Rectum: 0.07 μSv/MBq
[1]; Target Organ Red Marrow
  OLINDA dosimetry to Adult Male, Red Marrow: 0.10 μSv/MBq
[1]; Target Organ Right Colon
  OLINDA dosimetry to Adult Male, Right Colon: 0.27 μSv/MBq
[1]; Target Organ Salivary Glands
  OLINDA dosimetry to Adult Male, Salivary Glands: 0.01 μSv/MBq
[1]; Target Organ Small Intestine
  OLINDA dosimetry to Adult Male, Small Intestine: 1.54 μSv/MBq
[1]; Target Organ Spleen
  OLINDA dosimetry to Adult Male, Spleen: 0.25 μSv/MBq
[1]; Target Organ Stomach Wall
  OLINDA dosimetry to Adult Male, Stomach Wall: 0.23 μSv/MBq
[1]; Target Organ Thymus
  OLINDA dosimetry to Adult Male, Thymus: 0.11 μSv/MBq
[1]; Target Organ Thyroid
  OLINDA dosimetry to Adult Male, Thyroid: 0.05 μSv/MBq
[1]; Target Organ Total Body
  OLINDA dosimetry to Adult Male, Today Body: 1.13 μSv/MBq
[1]; Target Organ Tumor
  OLINDA dosimetry to Adult Male, Tumor: 145.00 μSv/MBq
[1]; Target Organ Urinary Bladder Wall
  OLINDA dosimetry to Adult Male, Urinary Bladder Wall: 7.66 μSv/MBq
[2]; 2 h
  Biodistribution Blood (% ID/g ± SD): 0.03 ± 0.02 % ID/g
  Biodistribution Bone (% ID/g ± SD): 0.05 ± 0.05 % ID/g
  Biodistribution Heart (% ID/g ± SD): 0.03 ± 0.01 % ID/g
  Biodistribution Kidney (% ID/g ± SD): 1.39 ± 0.48 % ID/g
  Biodistribution Liver (% ID/g ± SD): 0.17 ± 0.12 % ID/g
  Biodistribution Muscle (% ID/g ± SD): 0.05 ± 0.05 % ID/g
  Biodistribution RM1-PGLS tumor (% ID/g ± SD): 0.80 ± 0.18 % ID/g
  Biodistribution Sm Int (% ID/g ± SD): 0.03 ± 0.01 % ID/g
  Biodistribution Spleen (% ID/g ± SD): 0.08 ± 0.03 % ID/g
[2]; 24 h
  Biodistribution Blood (% ID/g ± SD): 0.00 ± 0.00 % ID/g
  Biodistribution Bone (% ID/g ± SD): 0.01 ± 0.01 % ID/g
  Biodistribution Heart (% ID/g ± SD): 0.01 ± 0.00 % ID/g
  Biodistribution Kidney (% ID/g ± SD): 0.09 ± 0.07 % ID/g
  Biodistribution Liver (% ID/g ± SD): 0.02 ± 0.01 % ID/g
  Biodistribution Muscle (% ID/g ± SD): 0.01 ± 0.01 % ID/g
  Biodistribution RM1-PGLS tumor (% ID/g ± SD): 0.25 ± 0.09 % ID/g
  Biodistribution Sm Int (% ID/g ± SD): 0.01 ± 0.01 % ID/g
  Biodistribution Spleen (% ID/g ± SD): 0.02 ± 0.01 % ID/g
[2]; 72 h
  Biodistribution Blood (% ID/g ± SD): 0.01 ± 0.01 % ID/g
  Biodistribution Bone (% ID/g ± SD): 0.01 ± 0.01 % ID/g
  Biodistribution Heart (% ID/g ± SD): 0.01 ± 0.00 % ID/g
  Biodistribution Kidney (% ID/g ± SD): 0.04 ± 0.01 % ID/g
  Biodistribution Liver (% ID/g ± SD): 0.02 ± 0.01 % ID/g
  Biodistribution Muscle (% ID/g ± SD): 0.01 ± 0.00 % ID/g
  Biodistribution RM1-PGLS tumor (% ID/g ± SD): 0.18 ± 0.06 % ID/g
  Biodistribution Sm Int (% ID/g ± SD): 0.02 ± 0.01 % ID/g
  Biodistribution Spleen (% ID/g ± SD): 0.02 ± 0.01 % ID/g
RM1-PGLS tumors
  Median OS: 15 days
[3]; Spleen
  Total CD4+ T-cell population: 12.73 ± 2.17
  Total CD8+ T-cell population: 8.78 ± 1.61
[3]; Tumor
  Total CD4+ T-cell population: 1.47 ± 0.59
  Total CD8+ T-cell population: 4.76 ± 1.40
[4]; 2 h
  Biodistribution Blood (% ID/g ± SD): 0.95 ± 0.53 % ID/g
  Biodistribution Bone (% ID/g ± SD): 0.21 ± 0.11 % ID/g
  Biodistribution Heart (% ID/g ± SD): 0.27 ± 0.12 % ID/g
  Biodistribution Kidney (% ID/g ± SD): 5.12 ± 1.95 % ID/g
  Biodistribution Liver (% ID/g ± SD): 0.29 ± 0.14 % ID/g
  Biodistribution Muscle (% ID/g ± SD): 0.14 ± 0.05 % ID/g
  Biodistribution PSMA (+) (PC3-PIP) tumor (% ID/g ± SD): 11.78 ± 1.46 % ID/g
  Biodistribution PSMA (−) (PC3-Flu) tumor (% ID/g ± SD): 0.48 ± 0.2 % ID/g
  Biodistribution Sm Int (% ID/g ± SD): 0.28 ± 0.15 % ID/g
  Biodistribution Spleen (% ID/g ± SD): .027 ± 0.14 % ID/g
[4]; 24 h
  Biodistribution Blood (% ID/g ± SD): 0.21 ± 0.13 % ID/g
  Biodistribution Bone (% ID/g ± SD): 0.07 ± 0.010 % ID/g
  Biodistribution Heart (% ID/g ± SD): 0.09 ± 0.05 % ID/g
  Biodistribution Kidney (% ID/g ± SD): 0.57 ± 0.29 % ID/g
  Biodistribution Liver (% ID/g ± SD): 0.08 ± 0.040 % ID/g
  Biodistribution Muscle (% ID/g ± SD): 0.04 ± 0.010 % ID/g
  Biodistribution PSMA (+) (PC3-PIP) tumor (% ID/g ± SD): 8.24 ± 3.22 % ID/g
  Biodistribution PSMA (−) (PC3-Flu) tumor (% ID/g ± SD): 0.18 ± 0.13 % ID/g
  Biodistribution Sm Int (% ID/g ± SD): 0.06 ± 0.020 % ID/g
  Biodistribution Spleen (% ID/g ± SD): 0.08 ± 0.040 % ID/g
[4]; 72 h
  Biodistribution Blood (% ID/g ± SD): 0.03 ± 0.01 % ID/g
  Biodistribution Bone (% ID/g ± SD): 0.05 ± 0.01 % ID/g
  Biodistribution Heart (% ID/g ± SD): 0.03 ± 0.01 % ID/g
  Biodistribution Kidney (% ID/g ± SD): 0.08 ± 0.05 % ID/g
  Biodistribution Liver (% ID/g ± SD): 0.03 ± 0.01 % ID/g
  Biodistribution Muscle (% ID/g ± SD): 0.02 ± 0.01 % ID/g
  Biodistribution PSMA (+) (PC3-PIP) tumor (% ID/g ± SD): 3.65 ± 0.59 % ID/g
  Biodistribution PSMA (−) (PC3-Flu) tumor (% ID/g ± SD): 0.02 ± 0.01 % ID/g
  Biodistribution Sm Int (% ID/g ± SD): 0.03 ± 0.01 % ID/g
  Biodistribution Spleen (% ID/g ± SD): 0.04 ± 0.01 % ID/g
